Test results as given in paper PMC12627933, “A First-In-Human Study of the SUMOylation Inhibitor Subasumstat in Patients with Advanced/Metastatic Solid Tumors or Relapsed/Refractory Hematologic Malignancies” (Cancer Research Communications, 2025).
Where “and” joins values, the source holds several entries; their conditions need not be identical. Identical values can stand only once.

Assay: Safety: treatment-emergent adverse events (NCI CTCAE v5.0; CRS per ASTCT), phase I/II study NCT03648372
Format: in vivo
Procedure: This study comprised two parts: a phase I dose escalation and a phase II dose expansion (Fig. 1). In the dose-escalation phase, patients were enrolled to receive subasumstat intravenously as a 1-hour (±10 minutes) infusion on days 1, 4, 8, and 11 of a 21-day cycle (biweekly schedule). […] Dose escalation was based on cohort with an adaptive design using Bayesian logistic regression modeling with overdose control. The starting dose of subasumstat was based on Good Laboratory Practice animal toxicity studies and supported by the estimation of a minimum anticipated biologically effective level. A detailed description of dose-limiting toxicities (DLT) is presented in the Supplementary Methods.
The phase II dose-expansion portion enrolled patients to receive the recommended phase II dose (RP2D) determined in phase I, with each cohort assessed separately using an adaptive two-stage design for a single proportion (see Supplementary Methods). For stage 1, each cohort was analyzed when a prespecified number of patients were enrolled and had the potential to have at least one posttreatment scan [i.e., after the first disease assessment, 2 months from cycle 1 day 1 (C1D1)]. If the prespecified minimal response rate was not achieved in the first stage for a given cohort, that cohort would be closed to enrollment. […] The final analysis of the primary endpoints for each cohort would take place when all ongoing patients had the opportunity to complete the 6-month disease assessment. Across both phases, patients received subasumstat for up to 1 year or until confirmed disease progression, unacceptable toxicity, if any withdrawal criterion from the study was met, or if discontinuation of subasumstat occurred.
The occurrence of DLTs was assessed during cycle 1 (DLTs are described in the Supplementary Methods). Treatment-emergent adverse events (TEAE) were graded according to NCI Common Terminology Criteria for Adverse Events version 5.0, except for cytokine release syndrome (CRS), which was graded according to the American Society for Transplantation and Cellular Therapy Consensus Grading for CRS ([20]).
It was anticipated that approximately 70 DLT-evaluable patients would be enrolled for dose escalation. The safety analysis set included all patients who received at least one dose, even if incomplete, of subasumstat. […] The overall response rate (ORR) was defined as the proportion of patients who achieved complete response and partial response (PR) during the study. The disease control rate (DCR) was defined as the proportion of patients who achieved […] as per RECIST v1.1 for solid tumors or Lugano classification for lymphomas. […] Progression-free survival was summarized descriptively using the Kaplan–Meier method.

SMILES: Cc1sc(C(=O)c2cncnc2N[C@@H]2C[C@H](COS(N)(=O)=O)[C@@H](O)C2)cc1[C@@H]1NCCc2ccc(Cl)cc21 [subasumstat]
- TEAE: Constipation (Total (N = 109)): 16 (14.7) n (%)
- TEAE: Decreased appetite (Total (N = 109)): 31 (28.4) n (%)
- TEAE: Dehydration (Total (N = 109)): 12 (11.0) n (%)
- TEAE: Diarrhea (Total (N = 109)): 39 (35.8) n (%)
- TEAE: Dyspnea (Total (N = 109)): 26 (23.9) n (%)
- TEAE: Fatigue (Total (N = 109)): 51 (46.8) n (%)
- TEAE: Headache (Total (N = 109)): 37 (33.9) n (%)
- TEAE: Hypophosphatemia (Total (N = 109)): 11 (10.1) n (%)
- TEAE: Insomnia (Total (N = 109)): 13 (11.9) n (%)
- TEAE: Nausea (Total (N = 109)): 45 (41.3) n (%)
- TEAE: Peripheral edema (Total (N = 109)): 17 (15.6) n (%)
- TEAE: Pleural effusion (Total (N = 109)): 12 (11.0) n (%)
- TEAE: Pyrexia (Total (N = 109)): 39 (35.8) n (%)
- TEAE: Stomatitis (Total (N = 109)): 11 (10.1) n (%)
- TEAE: Vomiting (Total (N = 109)): 29 (26.6) n (%)
- TEAEs (Total (N = 109)): 105 (96.3) n (%)
- TEAEs leading to discontinuation (Total (N = 109)): 12 (11.0) n (%)
- TEAEs leading to discontinuation related to subasumstat (Total (N = 109)): 4 (3.7) n (%)
- TEAEs related to subasumstat (Total (N = 109)): 87 (79.8) n (%)
- Grade ≥3 subasumstat-related TEAE: Anemia (Total (n = 109)): 4 (3.7) n (%)
- Grade ≥3 subasumstat-related TEAE: Aspartate aminotransferase increased (Total (n = 109)): 2 (1.8) n (%)
- Grade ≥3 subasumstat-related TEAE: Hypokalemia (Total (n = 109)): 2 (1.8) n (%)
- Grade ≥3 subasumstat-related TEAE: Lymphocyte count decreased (Total (n = 109)): 4 (3.7) n (%)
- Grade ≥3 subasumstat-related TEAE: Muscular weakness (Total (n = 109)): 2 (1.8) n (%)
- Grade ≥3 subasumstat-related TEAE: Neutropenia (Total (n = 109)): 4 (3.7) n (%)
- Grade ≥3 subasumstat-related TEAE: Platelet count increased (Total (n = 109)): 3 (2.8) n (%)
- Grade ≥3 subasumstat-related TEAE: Pneumonitis (Total (n = 109)): 2 (1.8) n (%)
- Grade ≥3 subasumstat-related TEAE: Thrombocytopenia (Total (n = 109)): 2 (1.8) n (%)
- Patients with at least one grade ≥3 subasumstat-related TEAE (Total (n = 109)): 29 (26.6) n (%)
- Subasumstat-related TEAE: Anemia (Total (n = 109)): 8 (7.3) n (%)
- Subasumstat-related TEAE: CRS (Total (n = 109)): 12 (11.0) n (%)
- Subasumstat-related TEAE: Chills (Total (n = 109)): 23 (21.1) n (%)
- Subasumstat-related TEAE: Decreased appetite (Total (n = 109)): 13 (11.9) n (%)
- Subasumstat-related TEAE: Diarrhea (Total (n = 109)): 21 (19.3) n (%)
- Subasumstat-related TEAE: Dyspnea (Total (n = 109)): 6 (5.5) n (%)
- Subasumstat-related TEAE: Fatigue (Total (n = 109)): 34 (31.2) n (%)
- Subasumstat-related TEAE: Headache (Total (n = 109)): 26 (23.9) n (%)
- Subasumstat-related TEAE: Hypokalemia (Total (n = 109)): 7 (6.4) n (%)
- Subasumstat-related TEAE: IRR (Total (n = 109)): 6 (5.5) n (%)
- Subasumstat-related TEAE: Myalgia (Total (n = 109)): 8 (7.3) n (%)
- Subasumstat-related TEAE: Nausea (Total (n = 109)): 33 (30.3) n (%)
- Subasumstat-related TEAE: Pyrexia (Total (n = 109)): 32 (29.4) n (%)
- Subasumstat-related TEAE: Vomiting (Total (n = 109)): 14 (12.8) n (%)
- Severity of CRS (all incidences, most nonserious): grade 1 or 2
- Discontinuation of subasumstat due to TEAEs (all patients (N = 109)): 11%
- Grade ≥3 TEAE abdominal pain (all patients (N = 109)): 5.5%
- Grade ≥3 TEAE anemia (all patients (N = 109)): 12.8% and 13%
- Grade ≥3 TEAE hypokalemia (all patients (N = 109)): 6.4%
- Grade ≥3 TEAEs (all patients (N = 109)): 60.6%
- On-study deaths (all patients (N = 109)): 11.0%
- On-study deaths related to subasumstat (all patients (N = 109)): none
- Subasumstat-related TEAE fatigue (all patients (N = 109)): 31.2%
- Subasumstat-related TEAE nausea (all patients (N = 109)): 30.3%
- Subasumstat-related TEAE pyrexia (all patients (N = 109)): 29.4%
- Subasumstat-related grade ≥3 TEAEs (all patients (N = 109)): 26.6%
- Subasumstat-related grade ≥3 anemia (all patients (N = 109)): 3.7%
- Subasumstat-related grade ≥3 decreased lymphocyte blood cell count (all patients (N = 109)): 3.7%
- Subasumstat-related grade ≥3 decreased platelet count (all patients (N = 109)): 2.8%
- Subasumstat-related grade ≥3 neutropenia (all patients (N = 109)): 3.7%
- TEAE diarrhea (all patients (N = 109)): 36% and 35.8%
- TEAE fatigue (all patients (N = 109)): 47% and 46.8%
- TEAE headache (all patients (N = 109)): 33.9%
- TEAE nausea (all patients (N = 109)): 41% and 41.3%
- TEAE pyrexia (all patients (N = 109)): 36% and 35.8%
- TEAEs related to subasumstat (all patients (N = 109)): 79.8%
- CRS (all patients (N = 109), 12 patients, all related to subasumstat): 11%
- Infusion-related reactions (IRR) (all patients (N = 109), seven patients): 6.4% and 6%
- Severity of IRR (all seven patients with IRR): grade 1 or 2
- Dose from which CRS was observed (in vivo): ≥ 60 mg
- IRR deemed related to subasumstat (of seven patients with IRR): six
